# Source: US9382255B2, “Substituted pyrrolopyrimidinylamino-benzothiazolones as MKNK kinase inhibitors” (BAYER PHARMA AKTIENGESELLSCHAFT, priority 2012, dated 2016)
# Biological target: T1, human full-length MKNK1 (Homo sapiens, UniProt Q9BUB5, T385D)
# T1 construct: GST (N); purchased Carna Biosciences 02-145; host or cells: insect cells (baculovirus expression system)
# Experiment: MKNK1 kinase high ATP assay (TR-FRET)
# Type: biochemical
# Settings: high ATP (2 mM final), 15 min preincubation with enzyme, GST-MKNK1 (T344D)
# Protocol: MKNK1 Kinase High ATP Assay
# MKNK1-inhibitory activity at high ATP of compounds of the present invention after their preincubation with MKNK1 was quantified employing the TR-FRET-based MKNK1 high ATP assay as described in the following paragraphs.
# A recombinant fusion protein of Glutathione-S-Transferase (GST, N-terminally) and human full-length MKNK1 (amino acids 1-424 and T344D of accession number BAA 19885.1), expressed in insect cells using baculovirus expression system and purified via glutathione sepharose affinity chromatography, was purchased from Carna Biosciences (product no 02-145) and used as enzyme. As substrate for the kinase reaction the biotinylated peptide biotin-Ahx-IKKRKLTRRKSLKG (C-terminus in amide form) was used, which can be purchased e.g. from the company Biosyntan (Berlin-Buch, Germany).
# For the assay 50 nL of a 100 fold concentrated solution of the test compound in DMSO was pipetted into a black low volume 384 well microtiter plate (Greiner Bio-One, Frickenhausen, Germany), 2 μL of a solution of MKNK1 in aqueous assay buffer [50 mM HEPES pH 7.5, 5 mM MgCL2, 1.0 mM dithiothreitol, 0.005% (v/v) Nonidet-P40 (Sigma)] was added and the mixture was incubated for 15 min at 22° C. to allow pre-binding of the test compounds to the enzyme before the start of the kinase reaction. Then the kinase reaction was started by the addition of 3 μL of a solution of adenosine-tri-phosphate (ATP, 3.3 mM=>final conc. in the 5 μL assay volume is 2 mM) and substrate (0.1 μM=>final conc. in the 5 μL assay volume is 0.06 μM) in assay buffer and the resulting mixture was incubated for a reaction time of 30 min at 22° C. The concentration of MKNK1 was adjusted depending of the activity of the enzyme lot and was chosen appropriate to have the assay in the linear range, typical concentrations were in the range of 0.003 μg/mL. The reaction was stopped by the addition of 5 μL of a solution of TR-FRET detection reagents (5 nM streptavidine-XL665 [Cisbio Bioassays, Codolet, France] and 1 nM anti-ribosomal protein S6 (pSer236)-antibody from Invitrogen [#44921G] and 1 nM LANCE EU-W1024 Labeled ProteinG [Perkin-Elmer, product no. AD0071]) in an aqueous EDTA-solution (100 mM EDTA, 0.1% (w/v) bovine serum albumin in 50 mM HEPES pH 7.5).
# The resulting mixture was incubated for 1 h at 22° C. to allow the formation of complex between the phosphorylated biotinylated peptide and the detection reagents. Subsequently the amount of phosphorylated substrate was evaluated by measurement of the resonance energy transfer from the Eu-chelate to the streptavidine-XL. Therefore, the fluorescence emissions at 620 nm and 665 nm after excitation at 350 nm were measured in a TR-FRET reader, e.g. a Rubystar (BMG Labtechnologies, Offenburg, Germany) or a Viewlux (Perkin-Elmer). The ratio of the emissions at 665 nm and at […] was taken as the measure for the amount of phosphorylated substrate. The data were normalised (enzyme reaction without inhibitor=0% inhibition, all other assay components but no enzyme=100% inhibition).
# T1 sequence (Q9BUB5 1-424 isoform Q9BUB5-2 T344D): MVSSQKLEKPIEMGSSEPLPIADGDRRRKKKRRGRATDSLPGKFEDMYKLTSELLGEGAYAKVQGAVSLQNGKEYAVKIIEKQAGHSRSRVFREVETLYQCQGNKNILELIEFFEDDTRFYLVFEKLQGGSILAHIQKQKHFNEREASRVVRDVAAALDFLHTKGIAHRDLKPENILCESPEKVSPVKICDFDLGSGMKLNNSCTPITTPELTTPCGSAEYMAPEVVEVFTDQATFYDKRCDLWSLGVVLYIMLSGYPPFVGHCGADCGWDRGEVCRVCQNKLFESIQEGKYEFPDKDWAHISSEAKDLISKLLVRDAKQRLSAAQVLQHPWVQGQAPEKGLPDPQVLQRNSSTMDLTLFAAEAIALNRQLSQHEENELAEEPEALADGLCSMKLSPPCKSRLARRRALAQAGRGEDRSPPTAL
row,IC50 [nM],SMILES
1,9,"Cc1c[nH]c2ncnc(Nc3ccc4[nH]c(=O)sc4c3)c12 [Example 15, 6-[(5-Methyl-7H-pyrrolo[2,3-d]pyrimidin-4-yl)amino]-1,3-benzothiazol-2(3H)-one]"
2,16,"CCCc1[nH]c2ncnc(Nc3ccc4[nH]c(=O)sc4c3)c2c1CC [Example 22, 6-[(5-Ethyl-6-propyl-7H-pyrrolo[2,3-d]pyrimidin-4-yl)amino]-1,3-benzothiazol-2(3H)-one]"
3,20,"O=C(c1cc2c(Nc3ccc4[nH]c(=O)sc4c3)ncnc2[nH]1)N1CCOCC1 [Example 32, 6-{[6-(Morpholin-4-ylcarbonyl)-7H-pyrrolo[2,3-d]pyrimidin-4-yl]amino}-1,3-benzothiazol-2(3H)-one]"
4,47,C[C@H]1COCCN1C(=O)c1cc2c(Nc3ccc4[nH]c(=O)sc4c3)ncnc2[nH]1 [Example 35]
